Literature values, collected in patent US20220361717A1, “Anti-Pathogenic Hand Sanitization Station” (priority 2021, published 2022).
“Also recorded” adds a separate entry of the source.

Experiments:
[1] = tested on: Bacteria: E-coli; conditions: value = inhibited species
[2] = tested on: Bacteria: Pseudomonas aeruginosa; Staphylococccus
[3] = tested on: Bacteria: Gram-postive bacteria; conditions: homopolymer versus model compound p-ethylbenzyl tetramethylene sulforium tetrafluoroborate
[4] = tested on: Bacteria: E. coli; S. aureus; S. typhimurium
[5] = tested on: Bacteria: Gram-positive; Gram-negative; conditions: copolymerization of antimicrobial monomer and styrene; effect on the potency of the monomer
[6] = tested on: Bacteria: S. Aureus; P. aeruginosa; E. coli
[7] = tested on: Bacteria: S. aureus; E. coli; conditions: value = inhibited species

With `C=CC(=O)N1C(C)(C)NC(=O)C1(C)C` as the molecule, how does the “Inhibited Microbial Species” value [1] read?
The value was “Bacteria: E-coli”.

What does the source list for `C=CC(=O)Oc1cc(Cl)ccc1Oc1ccc(Cl)cc1Cl`?
Comparison of Polymers with Monomer ([2]; homopolymer and copolymers with methyl methacrylate, styrene versus the monomer): less effective; Inhibited Microbial Species ([2]; value = inhibited species, 'Pseudomonas aeruginosa' wrapped over cells): Staphylococccus

For `C=Cc1ccc(C[S+]2CCCC2)cc1`, which “Comparison of Polymers with Monomer” value [3] is on record?
Its value is “is more effective”.

With `C=CC(=O)Oc1ccc(Cl)c2cccnc12` as the molecule, how does the “Comparison of Polymers with Monomer” value ([4]; homopolymer and copolymers with acrylamide versus the monomer) read?
The value was “less effective than”.

And the “Inhibited Microbial Species” value ([4]; value = inhibited species)?
The value was “S. aureus;; also recorded: S. typhimurium”.

For `C=CC(=O)Nc1cccc(C)c1`, which “Comparison of Polymers with Monomer” value [5] is on record?
The value was “styrene decreases”.

Which results are given for `C=C(C)C(=O)OCC(O)CSc1nnc(C)s1` (stereo not shown)?
Comparison of Polymers with Monomer ([6]; homopolymer effectiveness versus the monomer): more; Inhibited Microbial Species ([6]; value = inhibited species): Bacteria: S. Aureus;; also recorded: P. aeruginosa;; also recorded: E. coli;

Which “Inhibited Microbial Species” value [7] does the source give for `C=C(C)C(=O)OCCOC(=O)C(C)CC1(CCCCCCCC)CCC(CCCCCCCC)(CC(C)C(=O)OCCOC(=O)C(=C)C)CC1` (stereo not shown) here?
The value was “Bacteria: S. aureus;; also recorded: E. coli”.
